pIC50: −log10 of the molar value.
Target: T1, MMP-2 (Homo sapiens, UniProt P08253)
T1 sequence (P08253 110-660): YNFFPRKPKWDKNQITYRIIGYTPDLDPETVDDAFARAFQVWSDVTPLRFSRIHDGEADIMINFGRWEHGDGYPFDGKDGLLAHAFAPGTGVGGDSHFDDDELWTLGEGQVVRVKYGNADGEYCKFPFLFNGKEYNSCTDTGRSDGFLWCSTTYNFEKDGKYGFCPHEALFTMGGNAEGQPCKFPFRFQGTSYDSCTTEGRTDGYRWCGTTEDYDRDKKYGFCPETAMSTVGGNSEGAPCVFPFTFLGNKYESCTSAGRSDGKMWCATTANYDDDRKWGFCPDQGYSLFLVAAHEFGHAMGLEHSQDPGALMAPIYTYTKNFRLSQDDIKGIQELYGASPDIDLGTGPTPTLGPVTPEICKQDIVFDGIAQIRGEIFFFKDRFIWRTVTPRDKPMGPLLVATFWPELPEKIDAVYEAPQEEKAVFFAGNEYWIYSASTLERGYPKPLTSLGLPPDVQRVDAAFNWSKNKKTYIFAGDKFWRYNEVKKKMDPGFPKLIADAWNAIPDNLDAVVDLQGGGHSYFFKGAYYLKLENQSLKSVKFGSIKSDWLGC
Experiment: Assay for MMP-2 inhibitory activity (fluorogenic substrate)
Assay type: biochemical
Details: MMP-2 1 nM, preincubation 37° C. for 30 min, pH 7.5
Method: (§1) The synthetic broad-spectrum fluorogenic substrate (7-methoxycoumarin-4-yl) acetyl pro-Leu-Gly-Leu-(3-(2,4-dinitrophenyl)-L-2,3-diamino-propionyl)-Ala-Arg-NH2 (R & D Systems) was used to assay MMP-2 and MMP-9 activity as described previously [Huang et al J. Biol. Chem. 272 22086-22091 (1997)]. […] An aliquot (10 μl) of substrate (5 μM) was then added to […] of preincubated MMP/compound mixture, and activity was determined at 37° C. by following product release with time. The fluorescence changes were monitored using a Fusion Universal Microplate Analyzer (Packard Bioscience) with excitation and emission wavelengths set to 330 and 390 nm, respectively for MMP-2 and MMP-9. Inhibited rates were measured from the initial 10 min of the reaction profile where product release was linear with time. Nonlinear regression analysis was performed using the XMGRACE 5.18 software under linux.

Compound	pIC50
CC(C)[C@H](C(=O)NO)N(Cc1cccnc1)S(=O)(=O)c1ccc(O)c(I)c1 [Compound 8]	6.49
CC(C)C(C(=O)NO)N(Cc1cccnc1)S(=O)(=O)c1ccc(I)cc1 (centres unmarked) [Compound 9]	8.60
CC(C)[C@H](C(=O)NO)N(Cc1cccnc1)S(=O)(=O)c1ccc(O)cc1 [Compound 13]	7.24
CC(C)[C@H](C(=O)NO)N(Cc1cccnc1)S(=O)(=O)c1ccc(Br)cc1 [Compound 14]	7.79

Target: MMP-9 (Homo sapiens, UniProt P14780)
Experiment: Assay for MMP-9 inhibitory activity (fluorogenic substrate)
Assay type: biochemical
Details: MMP-9 2 nM, preincubation 37° C. for 30 min, pH 7.5
Method: as §1

Sequence of MMP-9 (P14780 94-707, species assumed): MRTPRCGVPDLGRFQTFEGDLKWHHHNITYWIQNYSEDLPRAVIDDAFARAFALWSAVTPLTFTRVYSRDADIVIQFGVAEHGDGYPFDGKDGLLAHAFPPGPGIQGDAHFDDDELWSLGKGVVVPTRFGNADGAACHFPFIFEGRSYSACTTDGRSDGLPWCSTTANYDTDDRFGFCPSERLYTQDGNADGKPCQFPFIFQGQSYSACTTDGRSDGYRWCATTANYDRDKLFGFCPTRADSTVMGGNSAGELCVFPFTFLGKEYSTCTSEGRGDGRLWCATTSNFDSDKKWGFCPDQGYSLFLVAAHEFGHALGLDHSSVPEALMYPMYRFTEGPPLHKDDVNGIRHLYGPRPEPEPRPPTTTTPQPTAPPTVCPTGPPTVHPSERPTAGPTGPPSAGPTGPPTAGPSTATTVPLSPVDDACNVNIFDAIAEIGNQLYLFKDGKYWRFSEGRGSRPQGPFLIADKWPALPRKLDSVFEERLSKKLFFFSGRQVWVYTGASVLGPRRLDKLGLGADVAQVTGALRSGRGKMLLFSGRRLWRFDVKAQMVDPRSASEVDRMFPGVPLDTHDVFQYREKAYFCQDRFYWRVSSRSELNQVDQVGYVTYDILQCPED

Compound	pIC50
CC(C)[C@H](C(=O)NO)N(Cc1cccnc1)S(=O)(=O)c1ccc(O)c(I)c1 [Compound 8]	6.82
CC(C)C(C(=O)NO)N(Cc1cccnc1)S(=O)(=O)c1ccc(I)cc1 (centres unmarked) [Compound 9]	8.34
CC(C)[C@H](C(=O)NO)N(Cc1cccnc1)S(=O)(=O)c1ccc(O)cc1 [Compound 13]	6.59
CC(C)[C@H](C(=O)NO)N(Cc1cccnc1)S(=O)(=O)c1ccc(Br)cc1 [Compound 14]	7.12

System: not given
Experiment: not given
Details: not given

Compound	melting point [°C]
CC(C)[C@H](C(=O)NO)N(Cc1cccnc1)S(=O)(=O)c1ccc(O)c(I)c1 [Compound 8]	201 to 203
CC(C)C(C(=O)NO)N(Cc1cccnc1)S(=O)(=O)c1ccc(I)cc1 (centres unmarked) [Compound 9]	169
CC(C)[C@H](C(=O)NO)N(Cc1cccnc1)S(=O)(=O)c1ccc(Br)cc1 [Compound 14]	169 to 170
